For 1 compound, viability, cytotoxicity and IC50 results are on record in US7148204B2, “Antisense modulation of bcl-x expression” (Isis Pharmaceuticala, Inc., priority 1998, dated 2006).

Data set [1] is described as follows: WST-1 viability assay of MO59K cells with taxol. The data set is classed as cell-based. The settings on record: human. The method, then:
Cells were seeded at a density of 0.25×10^6 in 6-well plates 24 hours before oligonucleotide treatment. Cultures were then incubated for 4 hours at 37° C. with 200 nM oligonucleotide in the presence of 10 μl Lipofectin as an uptake enhancer, according to the manufacturer's protocol. After incubation, the oligonucleotide-lipofectin mixture was replaced with complete medium and cells were cultured as described above.
Viability assays were performed in 96-well plates (Costar) on cells cultured as described above. Cells were incubated with taxol in 10 μl medium to a final concentration of 2.5 nM. Controls contained 10 μl medium with the corresponding amount of saline. Viability was determined with the […] WST-1 assay (Boehringer mannheim, Indianapolis, Ind.). and measured using a Dynatech MR-7000 ELISA reader acording to the manufacturer's instructions.

The next data set has as its system Shionogi tumor cells. Put plainly: MTT assay, taxol chemosensitivity of Shionogi cells. The data set is classed as cell-based. The following applies: Mus musculus, without ISIS 16009. The method, then: The in vitro growth inhibitory effects of antisense oligonucleotides and/or taxol on Shionogi tumor cells were asessed by the MTT assay (Miyake et al., 1998). Briefly, 1×10^4 cells were seeded in each well of 96-well microtiter plates and allowed to attach overnight. Cells were then treated once daily with 500 nM oligonucleotide for 2 days. Following oligonucleotide treatment, cells were treated with various concentrations of taxol. After a 48 hour incubation, 20 μl of 5 mg/ml MTT (Sigma) in PBS was added to each well, followed by incubation for 4 hr at 37° C. The formazan crystals were dissolved in DMSO. The optical density was determined with a microculture plate reader at 540 nm. Absorbance values were normalized to the values obtained for the vehicle-treated cells to determine the percent of survival. Each assay was performed in triplicate.
On the technique in general: Tetrazolium assays rely on reduction of a dye to a coloured formazan, in cell work by metabolically active cells.

Turning to `CC(=O)O[C@H]1C(=O)[C@@]2(C)[C@H]([C@H](OC(=O)c3ccccc3)[C@]3(O)C[C@H](OC(=O)[C@H](O)[C@@H](NC(=O)c4ccccc4)c4ccccc4)C(C)=C1C3(C)C)[C@]1(OC(C)=O)CO[C@@H]1C[C@@H]2O` [taxol], the viability (usually the share of living cells, or the viability signal relative to a control) at 2 days, 2.5 nM in data set [1] (taxol 2.5 nM added at day 2, read-out: cell viability after 4 days) is 63%. Moreover, the cytotoxicity at 24 h, 2.5 nM in data set [1] (taxol 2.5 nM, after 24 hours, read-out: reduction of viability) worked out at 25%. In data set [1] (taxol 2.5 nM, after 48 hours, read-out: reduction of viability), the cytotoxicity at 48 h, 2.5 nM was 37%. For the same compound, in the data set on Shionogi tumor cells, the IC50 (in general, the midpoint of a concentration-inhibition curve) was found to be 100 nM.
